Results published in patent US20060121480A1, “Synergistic compositions for the prevention and treatment of acquired immunodeficiency syndrome” (priority 2002, published 2006).
Read-outs that look alike come from different tables or passages of the source.

What was measured:
HIV-1 301714 (adult) [1] = test: HIV-1 P24 antigen in PBMC coculture, drug exposure at infection and for 12 hours thereafter; assay type: cell-based
Method: (§1) Viruses: 6 viruses were titrated. The TCID50/ml of each virus isolate was as the follows:
(§2) 512.2 μl of HIV-1 302076 was added into 9487.8 μl R-3 medium. 512.2 μl of HIV-1 302077 was added into 9487.8 μl R-3 medium. 126.3 μl of HIV-1 302143 was added into 9873.7 μl R-3 medium. 1002.4 μl of HIV-1 301714 was added into 8997.6 R-3 medium. 2000 μl of HIV-1m 2054 was added into 8000.0 μl R-3 medium. 4000 μl of HTLV-IIIB was added into 6000 R-3 μl medium. Viruses were diluted to 100 TCID50 virus stock: 2.5 ml of 2000 TCID50/ml was added to 2.5 ml of R-3 medium, this is 100 TCID50 (in 100 μl) stock. PBMC: Peripheral blood mononuclear cells (PBMC) were separated from HI-1-uninfected donor by Ficoll-hypaque density gradient centrifugation. PBMC were grown in RPMI 1640 supplemented with 20% fetal calf serum, 5% IL-2 and 5 μg/ml PHA (R-3 medium).
(§3) The above step was repeated for 1:156.25, 781.25, 3906.25 and 19531.25 dilutions. Finally, the concentrations used in the experiment were 2, 0.4, 0.08, 0.016, 0.0032, 0.00064 μg/ml.
(§4) The above step was repeated for 1:625, 1:3125, 1:15625, 1:78125 and 390625 dilution. Finally, the concentrations used in the experiment were 1.
(§5) The final 3 tubes are added with 100 μPBS. […] The tubes were incubated at 37° C. overnight.
(§6) The cells were washed 3 times in PBS.

HIV-1 2054 (adult) [2] = test: as above; assay type: cell-based
Method: as §1, §2, §3, §4, §5, §6

HTLV-IIIB (lab) [3] = conditions: PBMC
Method: (§7) Viruses: 6 viruses were titrated.
as §2
(§8) The final three tubes are added to 100 μl PBS. […] The final 3 tubes are added with 100 μPBS. […] The final 3 tubes are added to 100 μl PBS. 100 μl of 100 TCID50 virus stock were aliquoted into all 63 tubes. 2×10^6 PBMC was added in 1.8 ml of R-3 medium (total 2.0 ml per tube). The tubes were incubated at 37° C. overnight.
(§9) The cells were washed 3 times in PBS. […] HIV-1 P24 antigen measurement was performed in the supernatant of each coculture well on days 4 and 7.0.5 ml cells (10^6/ml) in R-3 medium were added on day 4.

HIV-1 302076 (pediatric) [4] = conditions: PBMC
Method: as §7, §2, §8, §9

HIV-1 302077 (pediatric) [5] = conditions: PBMC
Method: as §7, §2, §8, §9

HIV-1 302143 (pediatric) [6] = conditions: PBMC
Method: as §7, §2, §8, §9

HIV-1 301714 (adult) [7] = test: HIV-1 P24 antigen in PBMC coculture, continuous drug exposure; assay type: cell-based
Method: as §1, §2, §5, §6

HIV-1 2054 (adult) [8] = test: as above; assay type: cell-based
Method: as §1, §2, §5, §6

HTLV-IIIB (lab) [9] = conditions: PBMC; remark: listed apart in the source
Method: as §7, §2, §3
(§10) The above step was repeated for 1:625, 1:3125, 1:15625, 1:78125 and 390625 dilution. Finally, the concentrations used in the experiment were 1. 0.2.0.04, 0.008, 0.0016, 0.00032 μg/ml.
as §8, §9

HIV-1 302076 (pediatric) [10] = conditions: PBMC; remark: listed apart in the source
Method: as §7, §2, §3, §10, §8, §9

HIV-1 302077 (pediatric) [11] = conditions: PBMC; remark: listed apart in the source
Method: as §7, §2, §3, §10, §8, §9

HIV-1 302143 (pediatric) [12] = conditions: PBMC; remark: listed apart in the source
Method: as §7, §2, §3, §10, §8, §9

[13] = HIV-1 301714, day 4, drugs removed after 12 hours
[14] = HIV-1 301714, day 7, drugs removed after 12 hours
[15] = HIV-1 2054, day 4, drugs removed after 12 hours
[16] = HIV-1 2054, day 7, drugs removed after 12 hours
[17] = day 4, continuous drug exposure
[18] = day 7, continuous drug exposure
[19] = HIV-1 301714, day 4, continuous drug exposure
[20] = HIV-1 301714, day 7, continuous drug exposure
[21] = HIV-1 2054, day 4, continuous drug exposure
[22] = HIV-1 2054, day 7, continuous drug exposure

Row | Substance | IC50 (HIV-1 301714 (adult) [1]; [13]) | IC50 (HIV-1 301714 (adult) [1]; [14]) | IC50 (HIV-1 2054 (adult) [2]; [15]) | IC50 (HIV-1 2054 (adult) [2]; [16]) | IC50 (HTLV-IIIB (lab) [3]; [17]) | IC50 (HTLV-IIIB (lab) [3]; [18]) | IC50 (HIV-1 301714 (adult) [7]; [19]) | IC50 (HIV-1 301714 (adult) [7]; [20]) | IC50 (HIV-1 2054 (adult) [8]; [21]) | IC50 (HIV-1 2054 (adult) [8]; [22]) | further results
1 | 5A8: humanized monoclonal antibody to CD4 | 0.70 µg/mL | 1.82 µg/mL | 0.070 µg/mL | 0.13 µg/mL | 0.19 µg/mL | 0.16 µg/mL | 0.14 µg/mL | 0.30 µg/mL | 0.041 µg/mL | 0.017 µg/mL | IC50 (HIV-1 302076 (pediatric) [4]; HIV-1 302076, day 4, continuous drug exposure): 0.10 µg/mL; IC50 (HIV-1 302076 (pediatric) [4]; HIV-1 302076, day 7, continuous drug exposure): 0.028 µg/mL; IC50 (HIV-1 302077 (pediatric) [5]; HIV-1 302077, day 4, continuous drug exposure): 0.14 µg/mL; IC50 (HIV-1 302077 (pediatric) [5]; HIV-1 302077, day 7, continuous drug exposure): 0.067 µg/mL; IC50 (HIV-1 302143 (pediatric) [6]; HIV-1 302143, day 4, continuous drug exposure): 0.038 µg/mL; IC50 (HIV-1 302143 (pediatric) [6]; HIV-1 302143, day 7, continuous drug exposure): 0.022 µg/mL; IC50 (HTLV-IIIB (lab) [9]; day 4, drugs removed after 12 hours): 0.44 µg/mL; IC50 (HTLV-IIIB (lab) [9]; day 7, drugs removed after 12 hours): 1.30 µg/mL; IC50 (HIV-1 302076 (pediatric) [10]; HIV-1 302076, day 4, drugs removed after 12 hours): 0.15 µg/mL; IC50 (HIV-1 302076 (pediatric) [10]; HIV-1 302076, day 7, drugs removed after 12 hours): 0.65 µg/mL; IC50 (HIV-1 302077 (pediatric) [11]; HIV-1 302077, day 4, drugs removed after 12 hours): 0.17 µg/mL; IC50 (HIV-1 302077 (pediatric) [11]; HIV-1 302077, day 7, drugs removed after 12 hours): 0.50 µg/mL; IC50 (HIV-1 302143 (pediatric) [12]; HIV-1 302143, day 4, drugs removed after 12 hours): 0.97 µg/mL; IC50 (HIV-1 302143 (pediatric) [12]; HIV-1 302143, day 7, drugs removed after 12 hours): >2.0 µg/mL
2 | enfuvirtide | 0.20 µg/mL | 0.050 µg/mL | 0.039 µg/mL | 0.11 µg/mL | 0.017 µg/mL | 0.013 µg/mL | 0.049 µg/mL | 0.040 µg/mL | 0.019 µg/mL | 0.16 µg/mL | –
